The text below walks through data of patent publication US7189754B2, “Pyrrolidine ester derivatives with oxytocin modulating activity” (Applied Research Systems ARS Holding NV, priority 2001, dated 2007).

One data set deals with T1, ratOT-R (Rattus norvegicus, UniProt P70536).
T1 construct: expressed in transfected cells; host or cells: HEK/EBNA
T1 sequence (P70536 1-388): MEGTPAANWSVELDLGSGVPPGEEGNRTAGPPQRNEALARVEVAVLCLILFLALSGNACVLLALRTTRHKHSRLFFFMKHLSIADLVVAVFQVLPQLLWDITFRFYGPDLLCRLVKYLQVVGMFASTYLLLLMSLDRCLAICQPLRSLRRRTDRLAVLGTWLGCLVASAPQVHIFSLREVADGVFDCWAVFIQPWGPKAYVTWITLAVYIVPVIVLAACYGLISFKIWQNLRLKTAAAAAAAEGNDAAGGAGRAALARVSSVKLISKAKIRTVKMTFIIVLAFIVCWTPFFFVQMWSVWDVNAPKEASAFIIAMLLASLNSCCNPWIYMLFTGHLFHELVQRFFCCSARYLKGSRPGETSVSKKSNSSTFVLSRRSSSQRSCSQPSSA
The data set can be described thus: Functional assay No. 2: inhibition of IP3-synthesis in HEK/EBNA-OTR cells. Format: cell-based. To be noted: oxytocin 10 nM, [3H]-inositol. An excerpt:
c) Functional Assay No. 2: Inhibition of IP3 (Inositol Tri-Phosphate)-Synthesis in HEK/EBNA-OTR cells
The interaction of OT on the OT-receptor leads to the IP3 synthesis, IP3 being a second messenger for the Ca^2+ release from sarcoplasmic reticulum, involved in the uterine contraction triggering process (see Mitchell, B. F. and Schmid, B. J. Soc. Gynecol. Invest. 2001, 8,122–33).
This assay can be used to show the inhibition of the OT/OT-R mediated IP3 synthesis by using test compounds of formula (I).
Stimulation of the cells: HEK/EBNA OTR (rat or human) cells are plated out-into costar 12-well plates, and equilibrated for 15–24 h with 4 μCi/ml radiolabelled [^3H]-Inositol with 1% FCS (0.5 ml/well) and without inositol supplement. The medium containing the label is aspirated. […]
The amount of the radiolabelled IP3 may be determined through the ensuing work-up. […]
Elution of total IP's: Elution is achieved using 3 ml 1M ammonium formate/0.1M formic acid. […] The amount of [^3H]-IP3 is determined by a scintillating counter.
The ability of compounds of formula(I) to effectively antagonize oxytocin-induced IP3synthesis mediated by the oxytocin receptor, can be assessed using the above described in vitro biological assay.

Data set [1] concerns oxytocin-induced uterine contractions in the rat. In words: In vivo model for inhibition of uterine contractions (oxytocin-induced, anaesthetised DES-treated rats). As to conditions: intravenous, PEG400/saline 50:50, 5 ml/kg infusion. How it is done: d) In Vivo Model for Inhibtion of Uterine Contractions
The assay evaluates the biological effect of tested compounds in an in vivo model of preterm labor, premature birth.
Non-pregnant Charles River CD (SD) BR female rats (9–10 weeks old, 200–250 g) were treated at 18 and 24 hours before the experiment with 250 μg/kg, i.p. diethylstilbestrol (DES). For the assay, the animal was anaesthetised with urethane (1.75 g/kg, i.p.) and placed on a homeothermic operating table. The trachea was isolated and cannulated with a suitable polyethylene (PE) tubing. A midline incision at the hypogastrium level was made and one uterine horn exposed, its cephalic end cannulated with a PE240 tubing and, after filling the internal cavity with 0.2 ml of sterile physiological saline, connected to a “Gemini” amplifying/recording system via a P23ID Gould Statham pressure transducer.
One jugular vein was isolated, cannulated with a PE60 tubing and connected to a butterfly needle to provide an i.v. route of administration of the test compounds via a dispensing syringe.
In the case of intraduodenal administration of the test compounds, the duodenum can be isolated and similarly cannulated through a small incision in its wall.
One carotid artery was also isolated and cannulated with PE60 catheter and connected to a suitable syringe for blood sample collection.
After a stabilization period and throughout the experiment, the same dose of oxytocin was repeatedly injected intravenously at 30-min intervals. When reproducible contractile responses of the uterus to the same OT stimulus (selected dose of oxytocin) were obtained, the dose of the test compound or of the reference (vehicle) was administered. […]
The contractile response of the uterus to oxytocin was quantified by measuring the intrauterine pressure and the number of contractions. The effect of the reference and test compounds was evaluated by comparing pre- and post-treatment pressure values. […]
The activities of the pyrrolidine derivatives of formula (I) may be assessed using the above described in vivo biological assay. […]

For `CO/N=C1\C[C@@H](C(=O)OC)N(C(=O)c2ccc(-c3ccccc3C)cc2)C1` [Methyl (2S,4E)-4-(methoxyimino)-1-[(2′-methyl[1,1′-biphenyl]-4-yl)carbonyl]-2-pyrrolidinecarboxylate], the IC50 (usually the point on the concentration scale where inhibition reaches its midpoint) at ratOT-R turned out to be 77 nM. This lies in the double-digit nanomolar range.
Regarding `CO/N=C1/C[C@@H](C(=O)OC)N(C(=O)c2ccc(-c3ccccc3C)cc2)C1` [Methyl (2S,4Z)-4-(methoxyimino)-1-[(2′-methyl[1,1′-biphenyl]-4-yl)carbonyl]-2-pyrrolidinecarboxylate], the melting point (usually the temperature, or range, at which the solid turns liquid) is 40 °C. In data set [1] (dose 1 mg/kg), the “% Reduction of Uterine Contraction” value is −35.4 ± 7.0%. Besides, the “% Reduction of Uterine Contraction” value in data set [1] (dose 3 mg/kg) is −49.0 ± 6.5%. Moreover, the “% Reduction of Uterine Contraction” value in data set [1] (dose 10 mg/kg) is listed as −51.8 ± 9.2%. For the same compound, the half-maximal inhibitory concentration (IC50) at ratOT-R was 23 nM.
